# Patent US20180369244A1, “BTK Inhibitors to Treat Solid Tumors Through Modulation of the Tumor Microenvironment” (Acerta Pharma B.V., priority 2014, published 2018)
# Assays:
# ID8 ovarian cancer = experiment: ID8 syngeneic orthotropic ovarian cancer murine model; assay type: in vivo, mice; conditions: 15 mg/kg/BID oral
# Excerpt: Human ovarian cancer models, including the ID8 syngeneic orthotropic ovarian cancer model and other animal models, are described in Fong and Kakar, J. Ovarian Res. 2009, 2, 12; Greenaway, et al., Gynecol. Oncol. 2008, 108, 385-94; Urzua et al., Tumour Biol. 2005, 26, 236-44; Janat-Amsbury, et al., Anticancer Res. 2006, 26, 3223-28; Janat-Amsbury, et al., Anticancer Res. 2006, 26, 2785-89. […] The results of the study are shown in FIG. 5, FIG. 6, FIG. 7, FIG. 8, FIG. 9, FIG. 10, FIG. 11, and FIG. 12.
# CD8+ T cells = experiment: CD8+ T cell viability; assay type: cell-based; conditions: 4 days culture
# Protocol: Total T cells were plated on anti-TCR and anti-CD28 coated wells in the presence of both BTK inhibitors. Neutral culture conditions were used that will not polarize T cells to a helper lineage. The cells are grown for 4 days and are then stained with anti-CD4, anti-CD8 and LIVE/DEAD reagent to determine if the drugs have selective effects on either the CD4^+ or CD8^+ cells. Statistical significance was calculated using the Mann Whitney T-test. […]
# [1] = test system: BCR activation markers CD69 and CD86; experiment: In vivo potency, CD69 and CD86 expression after IgM stimulation; parameters: species or system mice; conditions: oral gavage, 3 h post-dose
# Excerpt: CD86 and CD69 are cell surface proteins that are BCR activation markers. […] BCR was stimulated with IgM and the expression of activation marker CD69 and CD86 are monitored by flow cytometry and to determine EC50 values.
compound,measurement,setting,value
"CC#CC(=O)N1CCC[C@H]1c1nc(-c2ccc(C(=O)Nc3ccccn3)cc2)c2c(N)nccn12 [Formula (II), (S)-4-(8-amino-3-(1-(but-2-ynoyl)pyrrolidin-2-yl)imidazo[1,5-a]pyrazin-1-yl)-N-(pyridin-2-yl)benzamide]",ID8 ovarian cancer growth,ID8 ovarian cancer,impairs ID8 ovarian cancer growth
same,immunosuppressive B cells in tumor-bearing mice,ID8 ovarian cancer,significant reduction in immunosuppressive B cells
same,tumor associated Tregs and CD8+ T cells,ID8 ovarian cancer,significant reduction in immunosuppressive tumor associated Tregs and an increase in CD8^+ T cells
same,CD8+ T cell viability,CD8+ T cells,not observed
same,"in vivo potency, inhibition of activation markers",[1],more potent at inhibiting expression of activation makers than ibrutinib
